# Experimental data from the METLIN SMRT retention time set (Domingo-Almenara et al. 2019).
# Experiment: gradient 5% acetonitrile 3 min, to 50% in 2 min, to 85% in 15 min, held 3 min, 100 µL/min
# Details: column: Zorbax Extend-C18 2.1 x 50 mm; eluents: water / acetonitrile, 0.1% formic acid
# How it was run: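 Values are retention times taken from adduct peaks that software picked and an analyst inspected. The pure standards were run as mixtures of ~100 molecules on HPLC linked to a quadrupole time-of-flight mass spectrometer, in positive and negative ionization mode. A Zorbax Extend-C18 column (2.1 × 50 mm, 1.8 μm) was used at 100 μL/min with water and acetonitrile, each including 0.1% formic acid.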
row,RP-LC retention time,Structure (SMILES)
1,964 s,Cc1nn(CC(=O)NC2CCCC2)c(=O)c2c(-n3cccc3)n(-c3cccc(F)c3)nc12
2,1330 s,Cc1cccc(-c2noc(C3CCCN3S(=O)(=O)c3ccc(C(C)C)cc3)n2)c1 (centres undefined)
3,922 s,O=C(Cc1csc2nc(-c3ccccc3)cn12)Nc1ccc(C(F)(F)F)cc1
4,748 s,CN(C)C(=O)c1cc2c(s1)CCC(C(=O)NC1CCCCC1)C2 (centres undefined)
5,872 s,O=C(Cc1ccc(Cl)cc1)N1CCN(c2ncccc2-c2nnc(C3CC3)o2)CC1
6,909 s,Cc1nn(-c2ccccc2)c(-n2cccc2)c1CNC(=O)NCc1ccc(F)cc1
7,1190 s,Cc1ccc(CNS(=O)(=O)c2cc(-c3nc(C(C)(C)C)cs3)cs2)o1
8,971 s,Cc1ccccc1OCC(=O)N1CCc2cc(-c3ccno3)ccc21
9,715 s,COC(=O)c1c(C)[nH]c(C(=O)N2CCC(CC(=O)N3CCCCCC3)CC2)c1C
10,754 s,COc1ccc(CNC(=O)Cn2c(=O)c3cc(-c4ccco4)nn3c3ncccc32)cc1
11,976 s,CCOc1ccc2nc(NC(=O)C3CCCN3S(=O)(=O)c3cc(C(=O)OC)n(C)c3)sc2c1 (centres undefined)
12,858 s,O=C(Nc1cc(F)cc(F)c1)C1CCN(C(=O)c2ncn3c2COC(c2ccc(F)cc2)C3)CC1 (centres undefined)
13,612 s,Cc1cc(=O)n(CC(=O)Nc2c(C)cccc2C)c(N2CCOCC2)n1
14,686 s,CCC(CN(C)Cc1ccccc1)NC(=O)CN(c1ccccc1)S(=O)(=O)N(C)C (centres undefined)
15,596 s,CCC(=O)Nc1ccc(CCc2nc3ccc(C(=O)NCCCOC)cc3[nH]2)cc1
16,749 s,Cc1csc(-c2cc(S(=O)(=O)Nc3ccc(S(N)(=O)=O)cc3)c(C)n2C)n1
17,661 s,CCCNC(=O)c1nn(-c2ccc(OC)cc2)c(OC)cc1=O
18,752 s,CCCC(=O)Nc1nc(-c2ccc3c(c2)NC(=O)CO3)c(C)s1
19,729 s,Cc1c(C(=O)N2CCN(C(=O)c3ccco3)CC2)[nH]c2ccccc12
20,1160 s,COc1cccc(-c2nc(C3CCN(S(=O)(=O)c4cccc(Cl)c4)CC3)no2)c1
21,672 s,Cn1c(N)c(S(=O)(=O)Nc2ccc(Br)cc2)c(=O)n(C)c1=O
22,572 s,O=C(NC1CC1)c1ccc(N2CCC(NCc3ccc(Br)cc3)C2)nc1 (centres undefined)
23,682 s,CCS(=O)(=O)N1CCc2ccc(NC(=O)c3ccco3)cc2C1
24,1150 s,CCn1cc(-c2ccc(Cl)cc2)cc1C(=O)N1CCCCC1
25,1020 s,CCCn1cc(C(=O)NCCCOC)c(S(=O)(=O)N2CCN(c3ccccc3Cl)CC2)n1

row,RP-LC retention time,Structure (SMILES)
1,701 s,Cc1ccc(C(=O)Nc2c(-c3ccc(F)cc3)nc3ccccn23)cc1[N+](=O)[O-]
2,890 s,O=S(=O)(CCc1noc(-c2nccc3ccccc23)n1)c1ccccc1
3,747 s,Cn1cccc1C(=O)N1CCN(c2cc(-c3ccccc3)[nH]n2)CC1
4,883 s,CCCC(=O)Nc1cc2c(cc1S(=O)(=O)c1ccccc1)n(CC)c(=O)n2CC
5,969 s,Cc1ccc(-c2nc3cnccn3c2Nc2ccccc2C)cc1
6,774 s,Cc1ccc(C)c(S(=O)(=O)N2CCC3(CC2)NCCN=C3NCc2cc(F)cc(F)c2)c1
7,833 s,COCCN1C(=O)CCc2cc(NS(=O)(=O)c3cc(C)c(C)cc3C)ccc21
8,843 s,CCc1nnc(-c2ccc3ccn(CC(=O)Nc4ccc(Cl)cn4)c3c2)o1
9,566 s,O=C(N[C@@H]1CN(c2ncccn2)C[C@H]1CO)c1ccco1
10,1260 s,CN(C1CCCCC1)S(=O)(=O)c1ccc(C(=O)Nc2nc3c(s2)Cc2ccccc2-3)cc1
11,720 s,CN1CCn2cc(S(=O)(=O)Nc3ccc(Cl)cc3)cc2C1=O
12,621 s,Cc1cccc(CN2CC(N(C3CCOCC3)S(C)(=O)=O)C2)c1
13,1100 s,Cc1ccc(C)c(CNS(=O)(=O)c2cc(-c3csc(C)n3)sc2C)c1
14,766 s,COc1ccc(-n2ccn3cc(-c4ccc5c(c4)OCO5)nc3c2=O)cc1
15,781 s,O=C(CC1CCCC1)N1CCCCC1c1nncn1CC1CC1 (centres undefined)
16,625 s,COc1cccc(CNC(=O)N2CCCCC2c2nncn2C)c1 (centres undefined)
17,825 s,COc1cc(CNC(=O)c2nc(CCS(=O)(=O)c3ccc(C)cc3)no2)cc(OC)c1OC
18,860 s,CN1c2cc(C(=O)NCc3ccccc3Br)ccc2C(=O)N2CCCCC21 (centres undefined)
19,771 s,CCN1CCCn2cc(S(=O)(=O)NCc3ccc(F)cc3Cl)cc2C1=O
20,899 s,O=S(=O)(Cc1ccccc1)N1CC(n2cc(COc3ccc(F)cc3)nn2)C1
21,649 s,O=C(CCC1CCCC1)NC1CCN(c2ccc(=O)[nH]n2)C1 (centres undefined)
22,873 s,COc1ccc(NC(=O)Cc2c(C)nn(-c3nc(C)cs3)c2C)cc1
23,939 s,CC(C)NC(=O)N1CCCC(c2cccc(C(=O)NCc3ccc(OC(C)C)cc3)c2)C1 (centres undefined)
24,763 s,Cc1ccc(S(=O)(=O)c2nc(S(C)(=O)=O)sc2NCc2ccccn2)cc1
25,634 s,O=C(C1CCN(Cc2cc3ccccc3n2Cc2ccccc2)CC1)N1CCN(C2CCCCC2)CC1

# Continued, compound first:
row,Structure (SMILES),RP-LC retention time
1,CC(=O)NCc1csc(C2CCN(C(=O)COc3ccc(Cl)cc3)CC2)n1,708 s
2,COc1cc(NC(=O)CSc2ccc(N3CCCC(C(=O)NC4CC4)C3)nn2)cc(OC)c1 (centres undefined),642 s
3,CCc1nc(-c2csc(S(=O)(=O)N3CCC(C(=O)Nc4ccc(C)cc4Cl)CC3)c2)no1,1080 s
4,Cc1cc(C)c(S(=O)(=O)N2CCC(C(=O)NCc3csc(-c4cccs4)n3)CC2)cc1C,1050 s
5,COc1ccc(S(=O)(=O)CCc2nc(-c3cccc(-c4ccnn4C)c3)no2)cc1,866 s
6,Cc1ccc(NC(=O)NCCn2c(-c3ccncc3)nc3cccnc32)c(C)c1,641 s
7,CCOC(=O)c1c(S(=O)(=O)NCc2ccc3c(c2)OCO3)n[nH]c1CC,718 s
8,Cc1oc(C2CCN(C(=O)Nc3ccc(F)cc3F)CC2)nc1C(=O)N1CCCC1,744 s
9,Cc1ccc(CCNC(=O)c2cc3n(n2)CC(C)(C(=O)NCc2ccccc2)N(C)C3=O)cc1 (centres undefined),815 s
10,CCCN1C(=O)COc2ccc(-c3noc(C4CC(=O)N(c5ccc(OC)cc5)C4)n3)cc21 (centres undefined),951 s
11,O=C(NCc1ccc(N2CCOCC2)cc1)c1cn2c(n1)COCC2,597 s
12,Cc1ccc(C(O)Cn2ccn3nc(-c4cccs4)cc3c2=O)cc1 (centres undefined),893 s
13,CC1Cc2ccccc2N1C(=O)C1CCN(S(=O)(=O)c2cn(C(C)C)cn2)CC1 (centres undefined),779 s
14,O=C(NCc1ccc2c(c1)OCO2)C1CCCN(c2nccn3nc(-c4ccc(F)cc4)cc23)C1 (centres undefined),872 s
15,Cc1nnc(-c2coc(S(=O)(=O)N3CCCCC3C)c2)o1 (centres undefined),809 s
16,C#Cc1cccc(Nc2ncnc3cc4c(cc23)OCCOCCOCCO4)c1,674 s
17,CCOC(=O)c1c(C)[nH]c(C(=O)N2CCCC(C(=O)NCCN3CCOCC3)C2)c1C (centres undefined),593 s
18,Cc1nc(C)c(-c2nnc(NC(=O)C3CC(=O)N(c4ccc(F)cc4)C3)o2)s1 (centres undefined),652 s
19,CSc1ccc(CNC(=O)c2[nH]c3cc(C)sc3c2CN(C)C)cc1,689 s
20,CCc1nc2c(NC(=O)COC)cccn2n1,646 s

row,Structure (SMILES),RP-LC retention time
1,O=C(Nc1cnn(-c2ncc(N3CCSCC3)cn2)c1)C1CCCC1,737 s
2,Cn1cccc1CN(Cc1cccs1)C(=O)CN1C(=O)CCC1=O,731 s
3,CCc1ccc(CNC(=O)c2c(C)oc3nc(C)nc(N4CCCC4)c23)cc1,795 s
4,COc1ccc(-c2nc(C)cc(C)c2CNS(=O)(=O)c2cccs2)cc1,642 s
5,Cc1cccc(N2CCN(CC(O)c3ccc4c(c3)OCO4)CC2)c1C (centres undefined),720 s
6,C=CCN(CC=C)C(=O)Nc1cc(OC)ccc1OC,962 s
7,COc1ccc(N2CC(c3nc(-c4ccccc4)no3)CC2=O)cc1Cl (centres undefined),973 s
8,CCNC(=O)NC1CCN(c2ccc(C)cc2)C1=O (centres undefined),671 s
9,CCC(=C(c1ccccc1)c1ccc(OCCN(C)C)cc1)c1ccccc1,1010 s
10,COc1ccccc1C(=O)Nc1nc(-c2ccc3c(c2)N(C)C(=O)CO3)cs1,969 s
11,Cc1cc(C)n2c(C)nnc2c1,570 s
12,CN(C)c1nc(C(=O)N2CCN(c3ccc(F)cc3)CC2)nc2c1cnn2C,739 s
13,CCCN1C(=O)COc2ccc(-c3noc(CNC(=O)Cc4ccc(Cl)cc4)n3)cc21,1050 s
14,CNC(=O)c1cn(-c2ccc(S(=O)(=O)N3CCCC3)cn2)cn1,622 s
15,Nc1nnc(SCc2nnc(-c3ccc4c(c3)OCO4)o2)s1,630 s
16,O=C(NCc1csc(C2CCCN(C(=O)C3CC3)C2)n1)C1CCC1 (centres undefined),667 s
17,CCOC(=O)C(=O)Nc1cc(Cl)ccc1C#N,763 s
18,CCN(CC)c1ccc(NC(=O)C2CC(=O)N(c3cccc(NC(C)=O)c3)C2)c(C)c1 (centres undefined),573 s
19,CCOc1ccccc1NC(=O)N1C[C@H](c2nc(-c3cccnc3)no2)[C@@H](C)C1,937 s
